In PubChem BioAssay (NCI):
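Dose response: 5 concentrations. Exposure: 48 h. Format: 96-well plates. Endpoint: linear interpolation; highest concentration if not reached. GI50 is the concentration that inhibits growth by half. The concentration for full growth arrest is given as TGI.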

What was measured:
Test in all cases: NCI tumour cell line growth inhibition, 48 h
ACHN renal = system: ACHN renal
CAKI-1 renal = system: CAKI-1 renal
CCRF-CEM leukemia = system: CCRF-CEM leukemia
HCT-116 colon = system: HCT-116 colon
HL-60(TB) leukemia = system: HL-60(TB) leukemia
IGROV1 ovarian = system: IGROV1 ovarian
KM12 colon = system: KM12 colon
RPMI-8226 leukemia = system: RPMI-8226 leukemia
SK-MEL-5 melanoma = system: SK-MEL-5 melanoma

SMILES	TGI (ACHN renal) [µM]	TGI (CAKI-1 renal) [µM]	TGI (CCRF-CEM leukemia) [µM]	TGI (HCT-116 colon) [µM]	TGI (HL-60(TB) leukemia) [µM]	TGI (IGROV1 ovarian) [µM]	TGI (KM12 colon) [µM]	TGI (RPMI-8226 leukemia) [µM]	TGI (SK-MEL-5 melanoma) [µM]	GI50 (ACHN renal) [µM]	GI50 (CCRF-CEM leukemia) [µM]	GI50 (HCT-116 colon) [µM]	GI50 (HL-60(TB) leukemia) [µM]	GI50 (IGROV1 ovarian) [µM]	GI50 (KM12 colon) [µM]	GI50 (RPMI-8226 leukemia) [µM]	GI50 (SK-MEL-5 melanoma) [µM]
Cn1c(=O)ccc2cc(C(=O)c3ccccc3)ccc21	> 100	> 100	> 100	> 100	> 100	> 100	> 100	> 100	55.7	–	–	–	–	–	–	–	–
O=C1OC(=O)C2C1C1(c3ccccc3)OC2(c2ccccc2)c2c(Br)c(Br)c(Br)c(Br)c21 (configuration not stated)	–	> 100	> 100	> 100	> 100	> 100	> 100	> 100	> 100	–	–	–	–	–	–	–	–
CC12CCC(C)(c3cc(O)c(O)cc31)c1cc(O)c(O)cc12	32.5	23.6	11.1	–	13.1	40.4	32.7	30	36.4	–	–	–	–	–	–	–	–
O=C(O)c1cccc(F)c1C(=O)c1ccc2ccccc2c1	> 100	> 100	> 100	> 100	> 100	> 100	> 100	> 100	–	–	–	–	–	–	–	–	–
Cc1ccc(Sc2cc([N+](=O)[O-])cc(Sc3ccc(C)cc3)c2Sc2ccc(C)cc2)cc1	> 100	> 100	65.4	> 100	> 100	> 100	> 100	> 100	> 100	–	–	–	–	–	–	–	–
Cn1c(=O)c2nc3sc4ccccc4c(=N)n3c2n(C)c1=O	> 100	> 100	> 100	–	> 100	> 100	> 100	–	> 100	–	–	–	–	–	–	–	–
Fc1cccc(C2SCc3nc4ccccc4n32)c1 (configuration not stated)	> 100	> 100	> 100	> 100	62.8	> 100	> 100	> 100	29.4	–	–	–	–	–	–	–	–
NCCCSCC(=O)O	> 100	> 100	–	> 100	–	> 100	> 100	> 100	> 100	–	–	–	–	–	–	–	–
Clc1ccc2c(NCCCNCc3ccc4c(c3)OCO4)ccnc2c1	12	–	19.3	8.82	4.79	20.9	15.1	6.16	3.13	3.45	4.62	2.03	2.22	5.52	3.86	2.31	1.74
CC(=O)Oc1cc(OC(C)=O)c(OC(C)=O)c2c1CC1C(=O)C3(CCc4ccccc43)C(=O)C1C2 (configuration not stated)	26.2	38.3	75.9	–	22.4	38.6	–	13.1	–	–	–	–	–	–	–	–	–
O=C1OC(/C=C/c2ccccc2)C(=O)C1=O (configuration not stated)	> 100	–	> 100	–	> 100	> 100	> 100	> 100	–	–	–	–	–	–	–	–	–
CCC1(O)CC(c2ccccc2)N(C)C(c2ccccc2)C1 (configuration not stated)	> 100	> 100	> 100	> 100	> 100	> 100	> 100	–	> 100	–	–	–	–	–	–	–	–
COc1ccccc1NC(=O)C(=O)C(C#N)CC(C)(C)C=O (configuration not stated)	> 100	> 100	–	> 100	> 100	> 100	> 100	> 100	> 100	–	–	–	–	–	–	–	–
C=C1[C@@H]2CCC(C)(C)[C@H]1CCC(=O)[C@@H]2C(=O)OC	> 100	–	> 100	> 100	> 100	> 100	–	> 100	> 100	–	–	–	–	–	–	–	–
CC1(C)OC(=O)C(c2ccsc2)C(=O)O1	> 100	> 100	> 100	> 100	> 100	–	> 100	> 100	> 100	–	–	–	–	–	–	–	–
O=C(c1ccccc1)C(c1ccccc1)C1(O)C(=O)Nc2ccc(Br)cc21 (configuration not stated)	> 100	> 100	47.7	> 100	48.2	> 100	> 100	98.9	–	–	–	–	–	–	–	–	–
C[C@]12CC[C@H](O)CC1CCC[C@@H]2O (some centres not stated)	–	> 100	> 100	> 100	> 100	> 100	> 100	> 100	> 100	–	–	–	–	–	–	–	–
O=C1C2Cc3ccccc3CN2C(=O)N1CCN1CCOCC1 (configuration not stated)	> 100	> 100	> 100	–	> 100	> 100	> 100	> 100	> 100	–	–	–	–	–	–	–	–
Cc1cc2c(C=O)[nH]nc2c(C#N)c1C	> 100	–	> 100	> 100	–	> 100	> 100	> 100	> 100	–	–	–	–	–	–	–	–
O=C(NCCOCCO)c1ccc(O)cc1	> 100	–	> 100	> 100	> 100	> 100	–	> 100	> 100	–	–	–	–	–	–	–	–
CCn1cc(C(=O)O)c(=O)c2cc(F)c(N3CCNCC3)nc21	> 100	–	> 100	> 100	> 100	> 100	> 100	> 100	> 100	–	–	–	–	–	–	–	–
CSc1nnc2n1-c1ccccc1SCC2	> 100	–	> 100	> 100	> 100	> 100	> 100	> 100	–	–	–	–	–	–	–	–	–
